Each structure is given as a SMILES string. In brackets after ≈: the same amount, converted by molar mass. Activity calls are given as the source filed them.

As usually defined, the MIC is the smallest concentration in the dilution series that meets the test's criterion for growth inhibition. Usually IC50 stands for the concentration that inhibits the measured activity by half. A higher IC50 goes with a need for much substance.

The subject of assay [1] is Klebsiella pneumoniae. The experiment in a line: Antibacterial activity against Klebsiella pneumoniae ATCC BAA-1706 at 100 ug/ml after 20 hrs. The assay is classed as functional, organism-based.
Assay [2] has as its system Burkholderia thailandensis. The experiment in a line: Antibacterial activity against Burkholderia thailandensis ATCC 700388 at 100 ug/ml after 20 hrs. It is filed as functional.
Assay [3] concerns Staphylococcus aureus. The experiment in a line: Antibacterial activity against Staphylococcus aureus ATCC 25923 at 100 ug/ml after 20 hrs. The assay is classed as functional, organism-based.
Assay [4] has as its system Pseudomonas aeruginosa. Kind of assay: Antibacterial activity against Pseudomonas aeruginosa ATCC 27853 after 20 hrs. The assay is classed as functional. Conditions: ATCC 27853, 20 h.
The subject of assay [5] is Francisella tularensis subsp. holarctica. The experiment in a line: Antibacterial activity against Francisella tularensis subsp. holarctica ATCC 29684 at 100 ug/ml after 20 hrs. The assay is classed as functional.
The test system of another assay is Bacillus anthracis. Kind of assay: Antibacterial activity against Bacillus anthracis Sterne after 20 hrs. It is filed as functional.
Assay [6] concerns Yersinia pestis. The experiment in a line: Antibacterial activity against Yersinia pestis A1122 at 100 ug/ml after 20 hrs. It is filed as functional.
For assay [7], the system named is Burkholderia cepacia. Kind of assay: Antibacterial activity against Burkholderia cepacia ATCC 25608 after 20 hrs. The assay is classed as functional.
The test system of assay [8] is Escherichia coli. The experiment in a line: Antibacterial activity against Escherichia coli ATCC 35218 at 100 ug/ml after 20 hrs. It is filed as functional, organism-based.
Assay [9] relates to Staphylococcus aureus. The experiment in a line: Antibacterial activity against methicillin-resistant Staphylococcus aureus Lac JE2 USA300 at 100 ug/ml after 20 hrs. It is filed as functional, organism-based.
Assay [10] concerns Staphylococcus aureus. Kind of assay: Antibacterial activity against Staphylococcus aureus ATCC 25923 after 20 hrs. The assay is classed as functional.
The subject of assay [11] is Burkholderia thailandensis. The experiment in a line: Antibacterial activity against Burkholderia thailandensis ATCC 700388 after 20 hrs. The assay is classed as functional.
The test system of assay [12] is Klebsiella pneumoniae. The experiment in a line: Antibacterial activity against Klebsiella pneumoniae ATCC BAA-1706 after 20 hrs. The assay is classed as functional. As to conditions: ATCC BAA-1706, 20 h.
Assay [13] has as its system Staphylococcus aureus. Kind of assay: Antibacterial activity against methicillin-resistant Staphylococcus aureus Lac JE2 USA300 after 20 hrs. The assay is classed as functional. Conditions: LAC JE2 USA300, 20 h.
The subject of assay [14] is Pseudomonas aeruginosa. Kind of assay: Antibacterial activity against Pseudomonas aeruginosa ATCC 27853 at 100 ug/ml after 20 hrs. It is filed as functional, organism-based.
A short description of assay [15]: Antibacterial activity against Francisella tularensis subsp. holarctica ATCC 29684 after 20 hrs. The assay is classed as functional. Conditions: ATCC 29684, 20 h.
A short description of assay [16]: Inhibition of Bacillus anthracis Sterne 34F2 DnaG primase activity using a DNA 32-mer template. Further details: species or system Bacillus anthracis str. Sterne.
The test system of assay [17] is Staphylococcus aureus. Kind of assay: Inhibition of Staphylococcus aureus DnaG primase activity after 1 hr by HPLC analysis.
The test system of assay [18] is Yersinia pestis. Kind of assay: Antibacterial activity against Yersinia pestis A1122 after 20 hrs. It is filed as functional. As to conditions: A1122, 20 h.
Assay [19] deals with Escherichia coli. The experiment in a line: Antibacterial activity against Escherichia coli ATCC 35218 after 20 hrs. The assay is classed as functional. As to conditions: ATCC 35218, 20 h.
For assay [20], the system named is Burkholderia cepacia. Kind of assay: Antibacterial activity against Burkholderia cepacia ATCC 25608 at 100 ug/ml after 20 hrs. The assay is classed as functional, organism-based.

As to `O=C1c2cc(OCCCN3CCCCC3)ccc2-c2ccc(OCCCN3CCCCC3)cc21`, the result (in the assay on Klebsiella pneumoniae [1]; in [2]; with Staphylococcus aureus [3]; in [5]; with Yersinia pestis [6]; with Escherichia coli [8]) was inactive. Further, the result with Staphylococcus aureus [9] was inactive. For the same compound, the values for the MIC with Pseudomonas aeruginosa [4] and with Bacillus anthracis were 100 µg/mL (≈ 216 µM) and 75 µg/mL (≈ 162 µM), respectively. Moreover, in the assay on Burkholderia cepacia [7], the MIC entry was “inactive”.
With `O=C1c2cc(OCCCCCCCCN3CCCCC3)ccc2-c2ccc(OCCCCCCCCN3CCCCC3)cc21`, the MIC against Staphylococcus aureus [10] (ATCC 25923, 20 h) turned out to be 62.5 µg/mL (≈ 104 µM); in assay [11] (ATCC 700388, 20 h) it was 25 µg/mL (≈ 41.5 µM); with Klebsiella pneumoniae [12], 100 µg/mL (≈ 166 µM); against Staphylococcus aureus [13] it was 16 µg/mL (≈ 26.5 µM); against Bacillus anthracis, 17.5 µg/mL (≈ 29 µM); against Burkholderia cepacia [7] (ATCC 25608, 20 h), 87.5 µg/mL (≈ 145 µM). Moreover, the MIC in [15] was 37.5 µg/mL (≈ 62.2 µM). The result in the assay on Yersinia pestis [6], with Pseudomonas aeruginosa [14] and in the assay on Escherichia coli [8] was inactive.
On to `CCN(CC)CCOc1ccc2c(c1)C(=O)c1cc(OCCN(CC)CC)ccc1-2` [TILORONE], for which the result with Staphylococcus aureus [10] was inactive. For the same compound, in assay [16], the IC50 came out at 7.1 µM. In addition, the inhibition result in the assay with Staphylococcus aureus [17] was “Active”.
In the case of `C=CCN(C)CCCOc1ccc2c(c1)C(=O)c1cc(OCCCN(C)CC=C)ccc1-2`, the result (in the assay with Klebsiella pneumoniae [1]; in assay [5]; with Staphylococcus aureus [9]) was inactive. Further, the MIC result (in the assay on Staphylococcus aureus [10]; in assay [11]) was “inactive” each time. The MIC came to 100 µg/mL (≈ 230 µM) in the assay with Pseudomonas aeruginosa [4]; 100 µg/mL (≈ 230 µM) against Bacillus anthracis; 100 µg/mL (≈ 230 µM) in the assay on Yersinia pestis [18]; 100 µg/mL (≈ 230 µM) in the assay on Escherichia coli [19]; 100 µg/mL (≈ 230 µM) with Burkholderia cepacia [7] (ATCC 25608, 20 h).
Turning to `C=CCN(C)CCCCCCCCOc1ccc2c(c1)C(=O)c1cc(OCCCCCCCCN(C)CC=C)ccc1-2`, the outcome in the assay with Klebsiella pneumoniae [1], in the assay on Yersinia pestis [6], with Pseudomonas aeruginosa [14] and with Escherichia coli [8] was inactive. Moreover, the MIC was determined as 50 µg/mL (≈ 87 µM) in the assay on Staphylococcus aureus [10] (ATCC 25923, 20 h); 17.5 µg/mL (≈ 30.4 µM) in assay [11] (ATCC 700388, 20 h); 16 µg/mL (≈ 27.8 µM) with Staphylococcus aureus [13]; 17.5 µg/mL (≈ 30.4 µM) with Bacillus anthracis; 100 µg/mL (≈ 174 µM) in the assay with Burkholderia cepacia [7] (ATCC 25608, 20 h); 37.5 µg/mL (≈ 65.2 µM) in assay [15].
Turning to `C=CCOc1ccc2c(c1)C(=O)c1cc(OCCCN(C)CC=C)ccc1-2`, the result (with Klebsiella pneumoniae [1]; in assay [2]; in the assay with Staphylococcus aureus [3]; in the assay with Burkholderia cepacia [20]; with Yersinia pestis [6]; in the assay with Pseudomonas aeruginosa [14]) was inactive. The outcome with Escherichia coli [8] was inactive. Moreover, the figures for the MIC (in the assay on Staphylococcus aureus [13]; against Bacillus anthracis; in assay [15]) were 32 µg/mL (≈ 88 µM), 25 µg/mL (≈ 68.8 µM) and 50 µg/mL (≈ 138 µM), respectively.
As for `C=CCN(C)CCOc1ccc2c(c1)C(=O)c1cc(OCCN(C)CC=C)ccc1-2`, the result (in the assay on Klebsiella pneumoniae [1]; in [2]; with Staphylococcus aureus [3]; with Burkholderia cepacia [20]; in assay [5]; with Yersinia pestis [6]) was inactive. The outcome with Pseudomonas aeruginosa [14], with Escherichia coli [8] and in the assay on Staphylococcus aureus [9] was inactive. The same compound gave a minimum inhibitory concentration (MIC) with Bacillus anthracis of 100 µg/mL (≈ 246 µM).
In the case of `O=C1c2cc(OCCN3CCCCC3)ccc2-c2ccc(OCCN3CCCCC3)cc21`, the outcome (with Klebsiella pneumoniae [1]; in assay [2]; in the assay with Staphylococcus aureus [3]; in assay [5]; with Yersinia pestis [6]; in the assay with Pseudomonas aeruginosa [14]) was inactive. For the same compound, the result in the assay on Escherichia coli [8] and in the assay with Staphylococcus aureus [9] was inactive. In addition, the minimum inhibitory concentration (MIC) was 100 µg/mL (≈ 230 µM) with Bacillus anthracis and 100 µg/mL (≈ 230 µM) in the assay with Burkholderia cepacia [7] (ATCC 25608, 20 h).
